How the values were obtained:
[1] = design: species or system patients (human); details: human, in vivo
Source text: The pharmacovigilance data that were collected, reviewed and analyzed provided the following information in respect of the incidence of NMS. To date, a total of 3 cases (two adult and one pediatric) fulfill the criteria of potential neuroleptic malignant syndrome. These cases were reviewed in detail for evaluation of possible safety signals. They were all deemed serious, and in all cases, the patients recovered with appropriate treatment.
Cases ZONI000813 and ZONI000929 are adult cases from Japan. In both cases the patients carried a diagnosis of Parkinson's disease (PD) and were enrolled in a double blind, placebo controlled […] study of zonisamide as a potential treatment for PD (Protocol AD810N-202-1). […]
Estimates of exposure, based upon retail and mail order prescriptions, indicate that the number of unique patients taking zonisamide capsules in the U.S. is about 37,276 (total prescriptions per year/average number of prescriptions per patient per year less a calculated percentage decrease based on estimated annual dropouts) in the time between approval in 2000 and December 2002 . […] Similarly, the incidences of NMS estimated herein are unlikely to be higher than calculated. Based on the exposure data and number of NMS cases, the incidence of NMS in the U.S. and Japan is calculated to be about 1:37,276 unique patients and 1:592,588 unique patients, respectively.

sodium channels = details: in vitro; cited from earlier work
T-type Ca^2+ currents = details: in vitro; cited from earlier work
[2] = system: GABA/benzodiazepine receptor ionophore complex; details: in vitro; does not produce changes in chloride flux; cited from earlier work
[3] = system: cultured mouse spinal cord neurons; details: 10-30 μg/mL, cited from earlier work
rat hippocampal slices = details: 10-30 μg/mL; cited from earlier work
[4] = system: dopaminergic and serotonergic neurotransmission; details: in vivo microdialysis; cited from earlier work
[5] = upon reaching a stable dose or following dosage adjustment; cited from earlier work
carbonic anhydrase = details: relative to acetazolamide; cited from earlier work

NS(=O)(=O)Cc1noc2ccccc12 [zonisamide, 1,2-benzisoxazole-3-methanesulfonamide]
cases fulfilling the criteria of potential neuroleptic malignant syndrome [1]: 3 cases
incidence of NMS [1]: about 1:37,276 unique patients
effect on sodium channels (sodium channels): blocks sodium channels
effect on T-type Ca2+ currents (T-type Ca^2+ currents): reduces voltage-dependent, transient inward currents
binding to GABA/benzodiazepine receptor ionophore complex [2]: binds to the GABA/benzodiazepine receptor ionophore complex in an allosteric fashion
postsynaptic GABA or glutamate responses ([3]; cultured mouse spinal cord neurons): without affecting
synaptically-driven electrical activity [3]: suppresses synaptically-driven electrical activity
neuronal or glial uptake of [3H]-GABA (rat hippocampal slices): without affecting
effect on neurotransmission [4]: facilitates both dopaminergic and serotonergic neurotransmission
time required to achieve steady-state levels [5]: up to two weeks
carbonic anhydrase inhibition compared to acetazolamide (carbonic anhydrase): 1/50

From patent US20050154033A1, “Methods of using zonisamide as an adjunctive therapy for partial seizures” (Eisai Co., Ltd, priority 2004, published 2005)
